Six compounds from patent US20230202990A1, “CYCLOHEXYL SUBSTITUTED TRIAZOLES” (Hoffmann-La Roche Inc., priority 2020, published 2023) can be followed below.

The target in the test is T1, human V1a receptor (Homo sapiens, UniProt P37288).
T1 construct: expressed in transfected cells; host or cells: HEK293 cells, transiently transfected; cell membranes
T1 sequence (P37288 whole entry): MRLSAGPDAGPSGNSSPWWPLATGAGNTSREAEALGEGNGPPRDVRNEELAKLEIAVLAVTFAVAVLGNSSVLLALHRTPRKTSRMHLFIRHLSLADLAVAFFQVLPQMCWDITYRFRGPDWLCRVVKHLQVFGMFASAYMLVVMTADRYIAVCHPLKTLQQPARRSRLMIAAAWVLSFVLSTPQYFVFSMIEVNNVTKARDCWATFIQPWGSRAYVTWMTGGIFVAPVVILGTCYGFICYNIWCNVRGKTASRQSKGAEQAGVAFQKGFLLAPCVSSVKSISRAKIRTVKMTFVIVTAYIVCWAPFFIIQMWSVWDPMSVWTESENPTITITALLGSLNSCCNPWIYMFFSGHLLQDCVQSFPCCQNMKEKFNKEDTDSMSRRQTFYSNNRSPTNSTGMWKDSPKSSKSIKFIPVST
Kind of test: human V1a receptor binding studies (3H-Vasopressin SPA, HEK293 cell membranes). To be noted: competition with 3H-Vasopressin on membranes of HEK293 cells transiently transfected with human V1a receptor; Ki by Cheng-Prussoff equation; read-out: pKi (hV1a) (converted). How it is done:
The human V1a receptor was cloned by RT-PCR from total human liver RNA. The coding sequence was subcloned in an expression vector after sequencing to confirm the identity of the amplified sequence. […] Cell membranes were prepared from HEK293 cells transiently transfected with the expression vector and grown in 20 liter fermenters with the following protocol.
50 g of cells are re-suspended in 30 ml freshly prepared ice cold Lysis buffer (50 mM HEPES, 1 mM EDTA, 10 mM MgCl2 adjusted to pH= 7.4 + complete cocktail of protease inhibitor (Roche Diagnostics)). Homogenized with Polytron for Imin and sonicated on ice for 2x 2 minutes at 80% intensity (Vibracell sonicator). The preparation is centrifuged 20 min at 500 g at 4° C., the pellet is discarded and the supernatant centrifuged 1 hour at 43 ′000g at 4° C. (19 ′000rpm). The pellet is re-suspended in 12.5 ml Lysis buffer+12.5 ml Sucrose 20% and homogenized using a Polytron for 1-2 min. The protein concentration is determined by the Bradford method and aliquots are stored at -80° C. until use. For binding studies 60 mg Yttrium silicate SPA beads (Amersham) are mixed with an aliquot of membrane in binding buffer (50 mM Tris, 120 mM NaCl, 5 mM KCl, 2 mM CaCl2, 10 mM MgCl2) for 15 minutes with mixing. 50 µl of bead/membrane mixture is then added to each well of a 96 well plate, followed by 50 µl of 4 nM 3H-Vasopressin (American Radiolabeled Chemicals). For total binding measurement 100 µl of binding buffer are added to the respective wells, for non-specific binding 100 µl of 8.4 mM cold vasopressin and for compound testing 100 µl of a serial dilution of each compound in 2% DMSO. The plate is incubated 1 h at room temperature, centrifuged 1 min at 1000 g and counted on a Packard Top-Count. Non-specific binding counts are subtracted from each well and data is normalized to the maximum specific binding set at 100%. To calculate an IC50 the curve is fitted using a non-linear regression model (XLfit) and the Ki is calculated using the Cheng-Prussoff equation.
Consider `COCc1nnc([C@H]2CC[C@H](Oc3ccc(C)nc3)CC2)n1-c1ccc(Cl)cc1` [Example 67, trans[4-[4-(4-Chlorophenyl)(methoxymethyl)-1,2,4-triazol-3-yl]cyclohexyl]oxy-2-methylpyridine], for which the Ki is 0.661 nM. The result for `COCc1nnc([C@H]2CC[C@H](Oc3cnccn3)CC2)n1-c1ccc(C)cc1` [Example 68, trans[4-[5-(Methoxymethyl)-4-(4-methylphenyl)-1,2,4-triazol-3-yl]cyclohexyl]oxypyrazine] reads 8.13 nM; that for `COCc1nnc([C@H]2CC[C@H](Oc3cnccn3)CC2)n1-c1ccc(Cl)cc1` [Example 69, trans[4-[4-(4-Chlorophenyl)-5-(methoxymethyl)-1,2,4-triazol-3-yl]cyclohexyl]oxypyrazine], 2.45 nM; that for `Cc1cnc(O[C@H]2CC[C@H](c3nnc(C)n3-c3ccc(Cl)cc3)CC2)cn1` [Example 70, trans[4-[4-(4-Chlorophenyl)-5-methyl-1,2,4-triazol-3-yl]cyclohexyl]oxy-5-methylpyrazine], 5.01 nM. In the case of `Cc1ccc(-n2c(C)nnc2[C@H]2CC[C@H](Oc3cnc(C)cn3)CC2)cc1` [Example 71, transMethyl-5-[4-[5-methyl-4-(4-methylphenyl)-1,2,4-triazol-3-yl]cyclohexyl]oxypyrazine], the Ki was 17.8 nM. The result for `COCc1nnc([C@H]2CC[C@H](Oc3cnc(C)cn3)CC2)n1-c1ccc(Cl)cc1` [Example 72, trans[4-[4-(4-Chlorophenyl)-5-(methoxymethyl)-1,2,4-triazol-3-yl]cyclohexyl]oxy-5-methylpyrazine] reads 2.95 nM.
